Measurements reported in patent US7833940B2, “2-(substituted phenyl)-6-hydroxy or alkoxy-5-substituted-4-pyrimidinecarboxylates and their use as herbicides” (Dow AgroSciences LLC, priority 2008, dated 2010).

Assays:
[1] = system: Wild Pointsettia (Euphorbia heterophylla); experiment: General postemergence herbicidal activity, EPHHL; assay type: in vivo; details: post-emergent, 280 g ai/ha, visual score after 14 days (0 = no injury, 100 = complete kill)
Method: (§1) Seeds or nutlets of the desired test plant species were planted in Sun Gro MetroMix® 306 planting mixture, which typically has a pH of 6.0 to 6.8 and an organic matter content of about 30 percent, in plastic pots with a surface area of 64 square centimeters. When required to ensure good germination and healthy plants, a fungicide treatment and/or other chemical or physical treatment was applied. The plants were grown for 7-21 days in a greenhouse with an approximate 15 hour photoperiod which was maintained at about 23-29° C. during the day and 22-28° C. during the night. Nutrients and water were added on a regular basis and supplemental lighting was provided with overhead metal halide 1000-Watt lamps as necessary. The plants were employed for testing when they reached the first or second true leaf stage.
(§2) A weighed amount, determined by the highest rate to be tested, of each test compound was dissolved in 4 mL of a 97:3 v/v (volume/volume) mixture of acetone and dimethyl sulfoxide (DMSO) to obtain concentrated stock solutions. […] The concentrated stock solutions obtained were diluted with 20 mL of an aqueous mixture containing acetone, water, isopropyl alcohol, DMSO, Atplus 411F crop oil concentrate, and Triton® X-155 surfactant in a 48.5:39:10:1.5:1.0:0.02 v/v ratio to obtain spray solutions containing the highest application rates. […]
(§3) The treated plants and control plants were placed in a greenhouse as described above and watered by sub-irrigation to prevent wash-off of the test compounds. After 14 days, the condition of the test plants as compared with that of the untreated plants was determined visually and scored on a scale of 0 to 100 percent where 0 corresponds to no injury and 100 corresponds to complete kill.

[2] = system: Redroot Pigweed (Amatanthus retroflexus); experiment: General postemergence herbicidal activity, AMARE; assay type: in vivo; details: post-emergent, 280 g ai/ha, visual score after 14 days (0 = no injury, 100 = complete kill)
Method: as §1, §2, §3

[3] = system: Common Sunflower (Helianthus annuus); experiment: General postemergence herbicidal activity, HELAN; assay type: in vivo; details: post-emergent, 280 g ai/ha, visual score after 14 days (0 = no injury, 100 = complete kill)
Method: as §1, §2, §3

[4] = system: Lambsquarters (Chenopodium album); experiment: General postemergence herbicidal activity, CHEAL; assay type: in vivo; details: post-emergent, 280 g ai/ha, visual score after 14 days (0 = no injury, 100 = complete kill)
Method: as §1, §2, §3

SMILES	% Growth Reduction EPHHL [1] [%]	melting point [°C]	% Growth Reduction AMARE [2] [%]	% Growth Reduction HELAN [3] [%]	% Growth Reduction CHEAL [4] [%]
COC(=O)c1nc(-c2ccc(Cl)c(OC)c2F)nc(O)c1Cl [Compound 1, 6-hydroxy-2-(4-chloro-2-fluoro-3-methoxyphenyl)-5-chloropyrimidine-4-carboxylic acid methyl ester]	100	215 to 217	100	90	100
COC(=O)c1nc(-c2ccc(Cl)c(OC)c2F)nc(O)c1Br [Compound 2, 6-hydroxy-2-(4-chloro-2-fluoro-3-methoxyphenyl)-5-bromopyrimidine-4-carboxylic acid methyl ester]	100	192 to 195	100	85	95
COC(=O)c1nc(-c2ccc(Cl)c(OC)c2F)nc(O)c1OC [Compound 3, 6-hydroxy-2-(4-chloro-2-fluoro-3-methoxyphenyl)-5-methoxypyrimidine-4-carboxylic acid methyl ester]	100	177 to 179	40	10	90
